# According to patent US20100179172A1, “N-PHENYL-METHANAMINE DERIVATIVE AND PESTICIDE CONTAINING IT” (priority 2007, published 2010):
# Tested on: Larval ticks (Haemaphysalis longicornis)
# Experiment: Test on controlling effects against Haemaphysalis longicornis (Petri dish contact, knock down time, Test Example 7)
# Assay type: in vivo
# Conditions: 1 ml in Petri dish, 25° C.
# Experimental: On an inner surface of a Petri dish having a diameter of 9 cm, 1 ml of a solution of the compound No. 40 in acetone (concentration: 10 μg/ml, 1 μg/ml or 0.1 μg/ml) was dropped by a micro pipette. After the inner surface of the Petri dish was dried, 100 Larval ticks (Haemaphysalis longicornis) were put, and the Petri dish was covered with a polyethylene sheet and sealed by a rubber band. Thereafter, the Petri dish was left to stand still at a constant temperature of 25° C. under a relative humidity of 100% under a constant dark condition except for the time of observation. Observation was carried out every time upon expiration of a certain time (i.e. after 5, 10, 20, 30, 60, 120, 180 and 240 minutes), and the number of ticks knocked down after contact with the compound was counted. As a control group, Larval ticks were put in a Petri dish having 1 ml of acetone dropwise added and observed in the same manner. The above operation was repeated twice.
# From the number of knocked down ticks in each observation, the survival rate was obtained, and a corrected mortality was calculated by the following Abbott correction formula. Then, probit-time linear line was drawn, and the median knock down time (KT50 value) was obtained.
# Corrected mortality (%)=[(Survival rate in control group−Survival rate in treated group)/Survival rate in control group]×100
smiles,measurement,setting,value
Cc1ncccc1CN(Cc1ccccn1)c1cc(C(F)(F)F)c(Br)c(C(F)(F)F)c1 [compound 40],"KT50 value, Average",0.1 μg/ml,38 min
same,"KT50 value, First time",0.1 μg/ml,40 min
same,"KT50 value, Second time",0.1 μg/ml,35 min
same,"KT50 value, Average",1 μg/ml,50 min
same,"KT50 value, First time",1 μg/ml,50 min
same,"KT50 value, Second time",1 μg/ml,50 min
same,"KT50 value, Average",10 μg/ml,40 min
same,"KT50 value, First time",10 μg/ml,40 min
same,"KT50 value, Second time",10 μg/ml,40 min
